In PubChem BioAssay AID248 (DTP/NCI, 2004):
“And” between values parts separate entries of the source, which are not always exact repeats. Identical values can stand only once. Inconclusive results and toxic doses are left out. No stated cut-off is given here; in the data, active means T/C of 150% or more; inactive means T/C below 125%.

System: L1210 leukemia ip in BDF1 mice, survival T/C
Test: NCI In Vivo Anticancer Drug Screen. Data for tumor model L1210 Leukemia (intraperitoneal) in B6D2F1 (BDF1) mice
Settings: endpoint: mean survival time, higher = longer survival
Outline: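 Tumor cells were implanted, animals were treated, and survival was followed. The result divides the treated measurement by the vehicle-control measurement.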

[1] = dose: 100.0 mg/kg/injection, schedule: Q04DX002 (ip), vehicle: saline
[2] = dose: 200.0 mg/kg/injection, schedule: Q04DX002 (ip), vehicle: saline
[3] = dose: 100.0 mg/kg/injection, schedule: Q01DX001 (ip), vehicle: carboxymethylcellulose (CMC)
[4] = dose: 200.0 mg/kg/injection, schedule: Q01DX001 (ip), vehicle: carboxymethylcellulose (CMC)
[5] = dose: 400.0 mg/kg/injection, schedule: Q01DX001 (ip), vehicle: carboxymethylcellulose (CMC)
[6] = dose: 100.0 mg/kg/injection, schedule: Q04DX003 (ip), vehicle: saline
[7] = dose: 200.0 mg/kg/injection, schedule: Q04DX003 (ip), vehicle: saline
[8] = dose: 200.0 mg/kg/injection, schedule: Q04DX003 (ip), vehicle: Klucel (hydroxypropylcellulose) (HPC)
[9] = dose: 100.0 mg/kg/injection, schedule: Q01DX009 (ip), vehicle: acetone
[10] = dose: 200.0 mg/kg/injection, schedule: Q01DX009 (ip), vehicle: acetone
[11] = dose: 400.0 mg/kg/injection, schedule: Q04DX003 (ip), vehicle: saline
[12] = dose: 100.0 mg/kg/injection, schedule: Q04DX003 (ip), vehicle: saline with Tween-80
[13] = dose: 200.0 mg/kg/injection, schedule: Q04DX003 (ip), vehicle: saline with Tween-80
[14] = dose: 400.0 mg/kg/injection, schedule: Q04DX003 (ip), vehicle: saline with Tween-80
[15] = dose: 100.0 mg/kg/injection, schedule: Q01DX001 (ip), vehicle: other
[16] = dose: 200.0 mg/kg/injection, schedule: Q01DX001 (ip), vehicle: other
[17] = dose: 400.0 mg/kg/injection, schedule: Q01DX001 (ip), vehicle: other
[18] = dose: 100.0 mg/kg/injection, schedule: Q01DX009 (ip), vehicle: saline with Tween-80
[19] = dose: 200.0 mg/kg/injection, schedule: Q01DX009 (ip), vehicle: saline with Tween-80

Measured: T/C

CCc1ccc2c(OC(C)=O)c3ccccc3c(OC(C)=O)c2c1
inactive: dose: 100.0 mg/kg/injection, schedule: Q01DX001 (ip), vehicle: saline with Tween-80 95 % of control | dose: 200.0 mg/kg/injection, schedule: Q01DX001 (ip), vehicle: saline with Tween-80 95 % of control | dose: 400.0 mg/kg/injection, schedule: Q01DX001 (ip), vehicle: saline with Tween-80 93 % of control

CC1N(N=O)CC1(Cl)c1ccccc1 (stereo unspecified)
inactive: [1] 98 % of control | [2] 98 % of control | dose: 400.0 mg/kg/injection, schedule: Q04DX002 (ip), vehicle: saline 102 % of control

CN(N=O)c1ccc(C=C2c3ccccc3-c3ccccc32)cc1
inactive: dose: 50.0 mg/kg/injection, schedule: Q01DX001 (ip), vehicle: carboxymethylcellulose (CMC) 102 % of control | [3] 106 % of control | [4] 96 % of control | [5] 102 % of control

CC(C)COC(=O)CCCc1ccc(N(CCCl)CCCl)cc1
inactive: [1] 121 % of control | [2] 111 % of control

O=NN(CS(=O)(=O)O)c1ccccc1
inactive: [6] 98 % of control | [7] 103 % of control

CC(C)(C)C1COP(=S)(C(C)(C)C)OC1 (stereo unspecified)
inactive: dose: 100.0 mg/kg/injection, schedule: Q04DX003 (ip), vehicle: Klucel (hydroxypropylcellulose) (HPC) 102 % of control | [8] 93 % of control

COc1cccc(OC)c1-c1oc2ccccc2c(=O)c1O
inactive: [9] 94 % of control | [6] 95 % of control | [10] 95 % of control | [7] 94 % of control | dose: 400.0 mg/kg/injection, schedule: Q01DX009 (ip), vehicle: acetone 95 % of control | [11] 94 % of control

CCn1/c(=N\N=O)sc2ccccc21
inactive: dose: 100.0 mg/kg/injection, schedule: Q01DX001 (ip), vehicle: Klucel (hydroxypropylcellulose) (HPC) 96 % of control

O=S(Cc1ccccc1)c1ccccc1 (stereo unspecified)
inactive: dose: 75.0 mg/kg/injection, schedule: Q04DX002 (ip), vehicle: Klucel (hydroxypropylcellulose) (HPC) 115 % of control | dose: 150.0 mg/kg/injection, schedule: Q04DX002 (ip), vehicle: Klucel (hydroxypropylcellulose) (HPC) 100 % of control | dose: 300.0 mg/kg/injection, schedule: Q04DX002 (ip), vehicle: Klucel (hydroxypropylcellulose) (HPC) 93 % of control

CCC[CH2][Sn]1([CH2]CCC)[O]CC2(CCCCC2)C[O]1
inactive: dose: 2.5 mg/kg/injection, schedule: Q04DX002 (ip), vehicle: saline + alcohol 94 % of control and 102 % of control | dose: 5.0 mg/kg/injection, schedule: Q04DX002 (ip), vehicle: saline + alcohol 105 % of control and 118 % of control | dose: 10.0 mg/kg/injection, schedule: Q04DX002 (ip), vehicle: saline + alcohol 105 % of control | dose: 20.0 mg/kg/injection, schedule: Q04DX002 (ip), vehicle: saline + alcohol 93 % of control and 105 % of control

CC12CCC3c4ccc(O)cc4CCC3C1CCC2O (stereo unspecified)
inactive: dose: 50.0 mg/kg/injection, schedule: Q01DX001 (sc), vehicle: steriod suspending solution 105 % of control and 111 % of control | dose: 100.0 mg/kg/injection, schedule: Q01DX001 (sc), vehicle: steriod suspending solution 98 % of control and 115 % of control | dose: 200.0 mg/kg/injection, schedule: Q01DX001 (sc), vehicle: steriod suspending solution 98 % of control and 103 % of control | dose: 400.0 mg/kg/injection, schedule: Q01DX001 (sc), vehicle: steriod suspending solution 101 % of control and 109 % of control

COc1ccc2c(c1)CCCC2CC(=O)c1ccccc1 (stereo unspecified)
inactive: dose: 50.0 mg/kg/injection, schedule: Q01DX009 (ip), vehicle: acetone 98 % of control | [9] 95 % of control | dose: 100.0 mg/kg/injection, schedule: Q04DX003 (ip), vehicle: acetone 86 % of control | dose: 198.0 mg/kg/injection, schedule: Q01DX009 (ip), vehicle: other 107 % of control | [10] 98 % of control | dose: 200.0 mg/kg/injection, schedule: Q04DX003 (ip), vehicle: acetone 87 % of control | dose: 300.0 mg/kg/injection, schedule: Q01DX009 (ip), vehicle: other 104 % of control

O=C(Nc1c(Br)cc2c(c1Br)Cc1cc(Br)ccc1-2)C(Cl)Cl
inactive: [3] 98 % of control | [4] 91 % of control | [5] 98 % of control

CCOC(=O)c1ccc(NC(=O)CS)cc1
inactive: [12] 89 % of control | [13] 94 % of control | [14] 97 % of control

CCN(CC)CCN(C)C(=O)C1C(c2ccccc2)C1c1ccccc1 (stereo unspecified)
inactive: dose: 25.0 mg/kg/injection, schedule: Q04DX002 (ip), vehicle: Klucel (hydroxypropylcellulose) (HPC) 93 % of control | dose: 50.0 mg/kg/injection, schedule: Q04DX002 (ip), vehicle: Klucel (hydroxypropylcellulose) (HPC) 105 % of control

CCN(CC)CCn1cnc2cc([N+](=O)[O-])ccc21
inactive: dose: 20.0 mg/kg/injection, schedule: Q01DX001 (ip), vehicle: Klucel (hydroxypropylcellulose) (HPC) 101 % of control | dose: 40.0 mg/kg/injection, schedule: Q01DX001 (ip), vehicle: Klucel (hydroxypropylcellulose) (HPC) 98 % of control

c1ccc(N=NC(N=Nc2ccccc2)=P(c2ccccc2)(c2ccccc2)c2ccccc2)cc1
inactive: dose: 100.0 mg/kg/injection, schedule: Q01DX009 (ip), vehicle: Klucel (hydroxypropylcellulose) (HPC) 97 % of control | dose: 200.0 mg/kg/injection, schedule: Q01DX009 (ip), vehicle: Klucel (hydroxypropylcellulose) (HPC) 108 % of control

CC1CC2(CCC1=O)OCCO2 (stereo unspecified)
inactive: [15] 95 % of control | [16] 95 % of control | [17] 96 % of control

N=C(N)c1cccc(NC(=O)c2ccc(C(=O)Nc3cccc(C(=N)N)c3)cc2)c1
inactive: dose: 8.0 mg/kg/injection, schedule: Q01DX Z (ip), vehicle: carboxymethylcellulose (CMC) 95 % of control | dose: 15.0 mg/kg/injection, schedule: Q01DX Z (ip), vehicle: saline 95 % of control | dose: 16.0 mg/kg/injection, schedule: Q01DX Z (ip), vehicle: carboxymethylcellulose (CMC) 96 % of control | dose: 30.0 mg/kg/injection, schedule: Q01DX Z (ip), vehicle: saline 120 % of control | dose: 31.0 mg/kg/injection, schedule: Q01DX Z (ip), vehicle: carboxymethylcellulose (CMC) 106 % of control | dose: 60.0 mg/kg/injection, schedule: Q01DX Z (ip), vehicle: saline 104 % of control | dose: 62.0 mg/kg/injection, schedule: Q01DX Z (ip), vehicle: carboxymethylcellulose (CMC) 113 % of control

CC(=O)Oc1cc(OC(C)=O)c(Oc2cc(OC(C)=O)c(OC(C)=O)c(OC(C)=O)c2)c(OC(C)=O)c1
inactive: [12] 97 % of control | [13] 95 % of control | [14] 90 % of control

N#CSc1c[nH]c2ccccc12
inactive: dose: 50.0 mg/kg/injection, schedule: Q01DX009 (ip), vehicle: saline with Tween-80 96 % of control | [18] 101 % of control | [12] 104 % of control | [13] 95 % of control

COc1cc(/C=N/N2C(=O)CSC2=S)ccc1OCc1ccccc1
inactive: [18] 89 % of control | [12] 93 % of control | [19] 91 % of control | [13] 93 % of control | [14] 86 % of control

COC(=O)c1ccccc1-c1ccccc1C(=O)O
inactive: dose: 44.0 mg/kg/injection, schedule: Q01DX001 (ip), vehicle: other 101 % of control | dose: 66.0 mg/kg/injection, schedule: Q01DX001 (ip), vehicle: other 106 % of control | [15] 93 % of control | dose: 150.0 mg/kg/injection, schedule: Q01DX001 (ip), vehicle: other 95 % of control | [16] 98 % of control | [17] 98 % of control

C1CN(SSN2CCOCC2)CCO1
inactive: dose: 12.5 mg/kg/injection, schedule: Q04DX003 (ip), vehicle: Klucel (hydroxypropylcellulose) (HPC) 89 % of control | dose: 25.0 mg/kg/injection, schedule: Q04DX003 (ip), vehicle: Klucel (hydroxypropylcellulose) (HPC) 110 % of control | dose: 50.0 mg/kg/injection, schedule: Q04DX003 (ip), vehicle: Klucel (hydroxypropylcellulose) (HPC) 89 % of control | [8] 102 % of control

Cc1cccc(CCc2ccc(Br)c(C)c2C)c1C
inactive: [3] 100 % of control | [4] 103 % of control | [5] 94 % of control

CC(=O)Oc1ccc(Cl)cc1
inactive: [18] 97 % of control | [12] 108 % of control | [19] 103 % of control | [13] 97 % of control | [14] 105 % of control

CNC(=O)c1ccccc1
inactive: [6] 104 % of control | [7] 98 % of control | [11] 98 % of control
